IC50 data for 16 compounds are collected here from patent US12060349B2, “Glucosylceramide synthase inhibitors” (Genzyme Corporation, priority 2012, dated 2024).

Experiment [1] concerns B16 mouse melanoma cells. The experiment is described as follows: cell viability in the B16 cell-based assay (Viability, B16 IC50). Conditions: Mus musculus. Summed up: (§1)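 Two melanoma lines, mouse B16 and human C32, were treated and surface GM3 quantified by antibody immunofluorescence for IC50. A parallel viability readout gives the concentration killing 50% of cells, with values over 10 indicating no cell death.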

The test system of experiment [2] is C32 human melanoma cells. Put plainly: cell viability in the C32 cell-based assay (Viability, C32 IC50). Conditions: Homo sapiens, concentration causing 50% cell death, values greater than 10 represent a lack of cell death. In short, it runs like this: as §1
The target of experiment [3] is T1, glucosylceramide synthase (Homo sapiens, UniProt Q16739).
T1 construct: Microsomes were isolated from A375 human melanoma cells; endogenous in cells; host or cells: A375 human melanoma cells (microsomal fraction, 100,000 g pellet)
T1 sequence (Q16739 1-394): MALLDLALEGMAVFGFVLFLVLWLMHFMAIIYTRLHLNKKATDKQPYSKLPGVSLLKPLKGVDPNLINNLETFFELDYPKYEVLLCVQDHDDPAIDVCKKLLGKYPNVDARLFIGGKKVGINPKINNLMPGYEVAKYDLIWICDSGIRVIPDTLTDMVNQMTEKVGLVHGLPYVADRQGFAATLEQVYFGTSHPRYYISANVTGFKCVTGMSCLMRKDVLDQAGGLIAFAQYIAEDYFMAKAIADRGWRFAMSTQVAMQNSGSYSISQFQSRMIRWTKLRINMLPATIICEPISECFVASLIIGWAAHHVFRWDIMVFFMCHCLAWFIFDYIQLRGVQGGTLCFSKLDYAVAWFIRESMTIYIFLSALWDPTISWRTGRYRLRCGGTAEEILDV
Put plainly: microsomal assay measuring conversion of ceramide to glucosylceramide by HPLC (GCS IC50). Type of experiment: biochemical. Particulars: concentration causing 50% inhibition of glucosylceramide synthase activity. In short, it runs like this:
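Microsomal preparation assayed for glucosylceramide synthase by direct HPLC measurement of ceramide conversion to glucosylceramide. GCS IC50 is the compound concentration giving 50% inhibition of enzyme activity.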

Experiment [4] has as its system GM3 expression on the cell surface, C32 human melanoma cells. The experiment is described as follows: cell based phenotypic assay, cell surface GM3 by antibody mediated immunofluorescence, C32 (GM3 C32 IC50). Particulars: Homo sapiens, 50% inhibition of GM3 expression on the cell surface. In short, it runs like this:
(§2)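 Both lines undergo the phenotypic GM3 assay, and viability is recorded from that same cell-based run.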

For experiment [5], the system named is GM3 expression on the cell surface, B16 mouse melanoma cells. The experiment is described as follows: cell based phenotypic assay, cell surface GM3 by antibody mediated immunofluorescence, B16 (GM3 B16 IC50). Conditions: Mus musculus, 50% inhibition of GM3 expression on the cell surface. In short, it runs like this: as §2
[6] abbreviates: B16, B16 cells, concentration causing 50% cell death, values greater than 10 represent a lack of cell death, read-out: Viability, B16 IC50.
Where [7] appears, read: C32, C32 cells, read-out: Viability, C32 IC50.
The mark [8] stands for this setting: C32 human melanoma cells, read-out: GM3 C32 IC50.
Where [9] appears, read: B16 mouse melanoma cells, read-out: GM3 B16 IC50.

Where two headings read alike, the source gives them in different places. Bounds are passed on as bounds.

In general, IC50 refers to the midpoint of a concentration-inhibition curve. On to `CCC1(NC(=O)NC(C)(C)c2ccc(-c3ccc(COCCOC)cc3)cc2)CN2CCC1CC2` (centres unmarked) [Example 199, 1-(3-Ethylquinuclidin-3-yl)-3-(2-(4′-((2-methoxyethoxy)methyl)-[1,1′-biphenyl]-4-yl)propan-2-yl)urea], for which the IC50 in experiment [1] (setting [6]) turned out to be 1000 nM; in experiment [2] (setting [7]), 1000 nM; in experiment [3], 14.7 nM; in experiment [4] (setting [8]) it was 1.8 nM; in experiment [5] (setting [9]) it was 31.7 nM.
Consider `COCCOCc1ccc(-c2ccc(C(C)(C)NC(=O)OC3CCN4CCC3CC4)cc2)cc1` (centres unmarked) [Example 200, 1-Azabicyclo[3.2.2]nonan-4-yl (2-(4′-((2-methoxyethoxy)methyl)-[1,1′-biphenyl]-4-yl)propan-2-yl)carbamate], for which the IC50 in experiment [1] (setting [6]) was no less than 10000 nM; in experiment [2] (setting [7]), 1000 nM; in experiment [3], 24 nM; in experiment [4] (setting [8]), 6.16 nM; in experiment [5] (setting [9]) it was 220 nM.
The corresponding values for `COCCOCc1ccc(-c2ccc(C(C)(C)NC(=O)NC3(C)CCN4CCC3CC4)cc2)cc1` (centres unmarked) [Example 201, 1-(2-(4′-((2-Methoxyethoxy)methyl)-[1,1′-biphenyl]-4-yl)propan-2-yl)-3-(4-methyl-1-azabicyclo[3.2.2]nonan-4-yl)urea] are no less than 10000 nM, 316 nM, 13.9 nM, 0.76 nM and 23 nM.
For `COCCOCc1ccc(-c2ccc(C(C)(C)NC(=O)N3CCN4CCC3CC4)cc2)cc1` [Example 202, N-(2-(4′-((2-Methoxyethoxy)methyl)-[1,1′-biphenyl]-4-yl)propan-2-yl)-1,4-diazabicyclo[3.2.2]nonane-4-carboxamide], in that order: no less than 10000 nM, no less than 10000 nM, 2350 nM, 154 nM and 933 nM.
The corresponding values for `COCCOCc1ccc(-c2ccc(C3(NC(=O)OC4CCN5CCC4CC5)CC3)cc2)cc1` (centres unmarked) [Example 204, 1-Azabicyclo[3.2.2]nonan-4-yl (1-(4′-((2-methoxyethoxy)methyl)-[1,1′-biphenyl]-4-yl)cyclopropyl)carbamate] are no less than 10000 nM, 1470 nM, 43.3 nM, 8.26 nM and 99.3 nM.
`COCCOCc1ccc(-c2ccc(C3(NC(=O)NC4(C)CN5CCC4CC5)CC3)cc2)cc1` (centres unmarked) [Example 205, 1-(1-(4′-((2-Methoxyethoxy)methyl)-[1,1′-biphenyl]-4-yl)cyclopropyl)-3-(3-methylquinuclidin-3-yl)urea]: the IC50 was no less than 10000 nM in experiment [1] (setting [6]); 1780 nM in experiment [2] (setting [7]); 51.5 nM in experiment [3]; 5.31 nM in experiment [4] (setting [8]); 156 nM in experiment [5] (setting [9]).
For `CCC1(NC(=O)NC2(c3ccc(-c4ccc(COCCOC)cc4)cc3)CC2)CN2CCC1CC2` (centres unmarked) [Example 206, 1-(3-Ethylquinuclidin-3-yl)-3-(1-(4′-((2-methoxyethoxy)methyl)-[1,1′-biphenyl]-4-yl)cyclopropyl)urea], the IC50 in experiment [1] (setting [6]) is no less than 10000 nM; in experiment [2] (setting [7]) it was 1780 nM; in experiment [3] it was 27.8 nM; in experiment [4] (setting [8]), 2.66 nM; in experiment [5] (setting [9]), 59.6 nM.
The corresponding values for `COCCOCc1ccc(-c2ccc(C3(NC(=O)NC4(C)CCN5CCC4CC5)CC3)cc2)cc1` (centres unmarked) [Example 207, 1-(1-(4′-((2-Methoxyethoxy)methyl)-[1,1′-biphenyl]-4-yl)cyclopropyl)-3-(4-methyl-1-azabicyclo[3.2.2]nonan-4-yl)urea] are no less than 10000 nM, 1780 nM, 12.3 nM, 1.39 nM and 31.3 nM.
For `COCCOCc1ccc(-c2ccc(C3(NC(=O)N[C@]4(C)CN5CCC4CC5)CC3)cc2)cc1` [Example 210, (S)-1-(1-(4′-((2-Methoxyethoxy)methyl)-[1,1′-biphenyl]-4-yl)cyclopropyl)-3-(3-methylquinuclidin-3-yl)urea], in that order: no less than 10000 nM, no less than 10000 nM, 50.2 nM, 3.34 nM and 87 nM.
For `COCCOCc1ccc(-c2ccc(C3(NC(=O)N[C@@]4(C)CN5CCC4CC5)CC3)cc2)cc1` [Example 211, (R)-1-(1-(4′-((2-Methoxyethoxy)methyl)-[1,1′-biphenyl]-4-yl)cyclopropyl)-3-(3-methylquinuclidin-3-yl)urea], in that order: no less than 10000 nM, 3160 nM, 938 nM, 72 nM and 683 nM.
As to `COCCCc1ccc(-c2ccc(C3(NC(=O)OC4CCN5CCC4CC5)CC3)cc2)cc1` (centres unmarked) [Example 212, 1-Azabicyclo[3.2.2]nonan-4-yl (1-(4′-(3-methoxypropyl)-[1,1′-biphenyl]-4-yl)cyclopropyl)carbamate], the IC50 in experiment [1] (setting [6]) was 6360 nM; in experiment [2] (setting [7]), no less than 10000 nM; in experiment [3] it was 3.85 nM; in experiment [4] (setting [8]), 2.53 nM; in experiment [5] (setting [9]), 47.9 nM.
The corresponding values for `COCCCc1ccc(-c2ccc(C3(NC(=O)NC4(C)CCN5CCC4CC5)CC3)cc2)cc1` (centres unmarked) [Example 213, 1-(1-(4′-(3-Methoxypropyl)-[1,1′-biphenyl]-4-yl)cyclopropyl)-3-(4-methyl-1-azabicyclo[3.2.2]nonan-4-yl)urea] are 9220 nM, no less than 10000 nM, 1.12 nM, 0.35 nM and 5.9 nM.
For `COCCCc1ccc(-c2ccc(C3(NC(=O)NC4(C)CN5CCC4CC5)CC3)cc2)cc1` (centres unmarked) [Example 214, 1-(1-(4′-(3-Methoxypropyl)-[1,1′-biphenyl]-4-yl)cyclopropyl)-3-(3-methylquinuclidin-3-yl)urea], in that order: no less than 10000 nM, no less than 10000 nM, 3.29 nM, 1.26 nM and 32.9 nM.
The corresponding values for `CCC1(NC(=O)NC2(c3ccc(-c4ccc(CCCOC)cc4)cc3)CC2)CN2CCC1CC2` (centres unmarked) [Example 215, 1-(3-Ethylquinuclidin-3-yl)-3-(1-(4′-(3-methoxypropyl)-[1,1′-biphenyl]-4-yl)cyclopropyl)urea] are 7550 nM, no less than 10000 nM, 2.48 nM, 0.542 nM and 16.2 nM.
For the compound `O=C(NC1(c2ccc(-c3ccc(COCc4cccnc4)cc3)cc2)CC1)OC1CN2CCC1CC2` (centres unmarked) [Example 216, Quinuclidin-3-yl (1-(4′-((pyridin-3-ylmethoxy)methyl)-[1,1′-biphenyl]-4-yl)cyclopropyl)carbamate], the IC50 in experiment [1] (B16, read-out: Viability, B16 IC50) was 7940 nM; in experiment [2] (C32, read-out: Viability, C32 IC50, C32 cells), no less than 10000 nM; in experiment [3] it was 9.33 nM; in experiment [4] (read-out: GM3 C32 IC50, C32 human melanoma cells), 11.1 nM; in experiment [5] (read-out: GM3 B16 IC50, B16 mouse melanoma cells), 201 nM.
For `CCC1(NC(=O)NC2(c3ccc(-c4ccc(COCc5cccnc5)cc4)cc3)CC2)CN2CCC1CC2` (centres unmarked) [Example 217, 1-(3-Ethylquinuclidin-3-yl)-3-(1-(4′-((pyridin-3-ylmethoxy)methyl)-[1,1′-biphenyl]-4-yl)cyclopropyl)urea], the IC50 in experiment [1] (setting [6]) was no less than 10000 nM; in experiment [2] (setting [7]) it was no less than 10000 nM; in experiment [3], 13.3 nM; in experiment [4] (setting [8]), 4.02 nM; in experiment [5] (setting [9]) it was 168 nM.
